Source: patent US11076595B2, “1-(n,n-disubstituted carbamoyl) 4-(substituted sulfonyl)triazolin-5-one derivative, 4-(n,n-disubstituted carbamoyl) 1-(substituted sulfonyl)triazolin-5-one derivative, and herbicide containing said derivative as active ingredient” (HOKKO CHEMICAL INDUSTRY CO., LTD., priority 2017, dated 2021)

How the values were obtained:
Format in all cases: in vivo
Monochoria vaginalis [1] = test: Test Example 11: herbicidal effect test by soil treatment in paddy field; details: 120 g/10a active ingredient, 14 days after treatment
In short: (§1)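 Weed suppression rate (%) was calculated as (1 − mean treated dry weight / mean untreated dry weight) × 100 at 14 days after treatment, two replicates per plot. Seeds were sown at 0–1 cm in flooded (about 3 cm) puddled paddy soil and treated immediately at 120 g active ingredient per 10 are.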

Scirpus juncoides [2] = test: as above; details: 120 g/10a active ingredient, 14 days after treatment
In short: as §1

Lindernia pyxidaria [3] = test: as above; details: 120 g/10a active ingredient, 14 days after treatment
In short: as §1

Echinochloa crus-galli [4] = test: as above; details: 120 g/10a active ingredient, 14 days after treatment
In short: as §1

Monochoria vaginalis [5] = test: Test Example 12: herbicidal effect test by treatment during growing period in paddy field; details: 120 g/10a; treatment seven days after sowing in flooded paddy pot; assessed 14 days after treatment
In short: (§2)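 Puddled, fertilized paddy soil in Wagner pots, sown with 30 seeds per species at 0–1 cm and flooded to ~3 cm in a glass greenhouse. Emulsifiable concentrate dripped into water 7 days after sowing at 120 g a.i. per 10 are. Suppression % from dry weight vs untreated, 14 days post-treatment, two replicates.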

Scirpus juncoides [6] = test: as above; details: 120 g/10a; treatment seven days after sowing in flooded paddy pot; assessed 14 days after treatment
In short: as §2

Lindernia pyxidaria [7] = test: as above; details: 120 g/10a; treatment seven days after sowing in flooded paddy pot; assessed 14 days after treatment
In short: as §2

Echinochloa crus-galli [8] = test: as above; details: 120 g/10a; treatment seven days after sowing in flooded paddy pot; assessed 14 days after treatment
In short: as §2

Chenopodium album [9] = test: Test Example 14: herbicidal effect test by foliage treatment in upland field; details: 7 days after sowing, 120 g/10a, 14 days after treatment
In short: (§3)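 Dose: 120 g a.i. per 10 are, sprayed in 100 L water per 10 are onto pots seven days post-sowing in alluvial soil. After 14 days, weed dry weight relative to untreated plots gave suppression rate (%); duplicate plots per concentration.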

crabgrass [10] = test: as above; details: 7 days after sowing, 120 g/10a, 14 days after treatment
In short: as §3

Amaranthus viridis [11] = test: as above; details: 7 days after sowing, 120 g/10a, 14 days after treatment
In short: as §3

Echinochloa crus-galli [12] = test: as above; details: 7 days after sowing, 120 g/10a, 14 days after treatment
In short: as §3

Amaranthus viridis [13] = test: Test Example 13: herbicidal effect test by soil treatment in upland field; details: 120 g/10a, 14 days after treatment
In short: (§4)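 Suppression rate (%) is calculated from mean plant dry weight in treated versus untreated plots, 14 days after treatment, with duplicate plots per concentration. Seeds (20 per species) are mixed into the surface centimetre of alluvial soil, and the diluted emulsifiable concentrate is sprayed onto the soil the following day at 120 g a.i. per 10 are.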

Echinochloa crus-galli [14] = test: as above; details: 120 g/10a, 14 days after treatment
In short: as §4

Chenopodium album [15] = test: as above; details: 120 g/10a, 14 days after treatment
In short: as §4

crabgrass [16] = test: as above; details: 120 g/10a, 14 days after treatment
In short: as §4

Row | Compound | Weed suppression rate (%) Monochoria vaginalis (Monochoria vaginalis [1]) [%] | Weed suppression rate (%) Scirpus juncoides (Scirpus juncoides [2]) [%] | Weed suppression rate (%) Lindemia pyxidaria (Lindernia pyxidaria [3]) [%] | Weed suppression rate (%) Echinochloa crus-galli (Echinochloa crus-galli [4]) [%] | Weed suppression rate (%) Monochoria vaginalis (Monochoria vaginalis [5]) [%] | Weed suppression rate (%) Scirpus juncoides (Scirpus juncoides [6]) [%] | Weed suppression rate (%) Lindemia pyxidaria (Lindernia pyxidaria [7]) [%] | Weed suppression rate (%) Echinochloa crus-galli (Echinochloa crus-galli [8]) [%] | herbicidal effect, Chenopodium album (Chenopodium album [9]) [%] | herbicidal effect, Crabgrass (crabgrass [10]) [%] | herbicidal effect, Amaranthus viridis (Amaranthus viridis [11]) [%] | herbicidal effect, Echinochloa crus-galli (Echinochloa crus-galli [12]) [%] | herbicidal effect, Amaranthus viridis (Amaranthus viridis [13]) [%] | herbicidal effect, Echinochloa crus-galli (Echinochloa crus-galli [14]) [%] | herbicidal effect, Chenopodium album (Chenopodium album [15]) [%] | herbicidal effect, Crabgrass (crabgrass [16]) [%]
1 | CC(C)CN(C)S(=O)(=O)n1ncn(C(=O)N(c2ccc(F)cc2F)C(C)C)c1=O [Compound 11-1101] | 90 | 90 | 90 | 90 | 80 | 90 | 80 | 90 | 80 | 90 | 90 | 80 | 90 | 80 | 80 | 90
2 | CC(C)N(C(=O)n1cnn(S(=O)(=O)N2CCCCC2)c1=O)c1ccc(F)cc1F [Compound 11-1102] | 90 | 90 | 100 | 100 | 80 | 90 | 70 | 100 | 80 | 90 | 90 | 80 | 90 | 100 | 100 | 100
3 | CC(C)N(C(=O)n1cnn(S(=O)(=O)C2CCOCC2)c1=O)c1ccc(F)cc1F [Compound 11-1109] | 80 | 90 | 80 | 90 | 80 | 90 | 80 | 90 | 80 | 90 | 90 | 80 | 100 | 100 | 100 | 100
4 | CCS(=O)(=O)n1ncn(C(=O)N(c2cccc(F)c2F)C(C)C)c1=O [Compound 11-1148] | 90 | 100 | 100 | 100 | 90 | 100 | 90 | 100 | 80 | 100 | 70 | 100 | 100 | 100 | 90 | 100
5 | COc1ccc(S(=O)(=O)n2ncn(C(=O)N(c3cccc(F)c3F)C(C)C)c2=O)cc1 [Compound 11-1149] | 100 | 100 | 100 | 100 | 100 | 100 | 80 | 100 | 70 | 80 | 30 | 70 | 30 | 70 | 30 | 70
6 | CCS(=O)(=O)n1ncn(C(=O)N(c2c(F)cccc2F)C(C)C)c1=O [Compound 11-1150] | 70 | 90 | 100 | 100 | 90 | 60 | 100 | 100 | 60 | 100 | 50 | 100 | 90 | 100 | 80 | 100
7 | CCS(=O)(=O)n1ncn(C(=O)N(c2c(F)cc(F)cc2F)C(C)C)c1=O [Compound 11-1154] | 100 | 100 | 100 | 100 | 90 | 80 | 80 | 100 | 80 | 100 | 30 | 100 | 90 | 100 | 80 | 100
8 | COc1ccc(S(=O)(=O)n2ncn(C(=O)N(c3c(F)cc(F)cc3F)C(C)C)c2=O)cc1 [Compound 11-1155] | 80 | 100 | 100 | 100 | 90 | 90 | 80 | 100 | 60 | 100 | 30 | 90 | 30 | 90 | 30 | 90
